SMILES strings stand for the structures. “And” between values parts separate entries of the source, which are not always exact repeats. Identical values can stand only once.

Consider 23 compounds from US3991200A, “Substituted nitroimidazolyl thiadiazoles and oxadiazoles as antibacterial agents and growth promoting compounds” (American Cyanamid Company, priority 1973, dated 1976).

In one assay the test system is Salmonella gallinarum. Nature of the assay: controlling fowl typhoid in chicks, medicated feed. As to conditions: 10 days. In kind it is in vivo, Salmonella gallinarum (in sex-linked pullet chicks). As for the experimental part: Groups of five one-day old sex-linked pullet checks are infected orally by gavage with 0.5 ml. of a 10^-^2 dilution of a five-hour Trypticase Soy Broth culture of Salmonella gallinarum, the causative agent of fowl typhoid. Each chick receives approximately 6 × 10^5 viable cells. Medication is administered continuously in the feed, beginning 3 hours before infection and continuing for 10 days, at which time the test is terminated and the number of survivors in each group recorded. Each test utilizes two control groups of chicks, the first group comprising 20 chicks which are infected and untreated, and the second group comprising 10 chicks which are uninfected and untreated. The results of the tests are set forth in the following Table III (in some instances, the results from two or more tests are combined): […]

Assay [1] relates to Pasteurella multocida. The experiment in a line: controlling a Pasteurella multocida infection in mice. It counts as in vivo, Pasteurella multocida (in Swiss Webster female mice). As to conditions: 336 h, 2 mg./mouse by gavage, two weeks post-infection, read-out: Survivors/Total (converted). As for the experimental part:
Swiss Webster, female mice weighing 22±2 g. were infected by intrapeutoneal injection of 0.5 ml. of a 5 hour Trypticase Soy Broth culture containing 10^7 cfu. of P. multocida. Each mouse was given by gavage at the time of infection 2 mg. of the test drug suspended in 0.2% agar.

A short description of assay [2]: enhancing the growth rate and improving feed efficiency, chicks. It counts as in vivo. The source says: Day-old chicks are divided into groups of ten birds each, five males and five females. These groups are then weighted, placed in pens and given free access to water and feed. […] All feed is weighed such that an accurate determination as to the amount of gain per unit of feed can be ascertained. […]

The test system of assay [3] is Pasteurella multocida. The experiment in a line: controlling a Pasteurella multocida infection in mice. In kind it is in vivo, Pasteurella multocida (in Swiss Webster female mice). As to conditions: 336 h, two weeks post-infection, read-out: Survivors/Total (converted); for responders at 0.5 mg: 0.5 mg./mouse by gavage; for responders at 0.25 mg: 0.25 mg./mouse by gavage; for responders at 1 mg: 1 mg./mouse by gavage.

The mark [4] stands for this setting: 10 ppm in diet, 10 birds, 19 days, listed as 1-[5-(1-Methyl-5-nitro-2-imidazolyl)-1,3,4-thiadiazol-2-yl]-4-(2-thiazolyl)piper.
Where [5] appears, read: 10 ppm in diet, 10 birds, listed as 1-[5-(1-Methyl-5-nitro-2-imidazolyl)-1,3,4-thiadiazol-2-yl]-4-(2-thiazolyl)piper.
[6] abbreviates: 0.025% in feed, 10 chicks tested.
Where [7] appears, read: 10 ppm in diet, 10 birds, 19 days.
Where [8] appears, read: 0.006% in feed, 10 chicks tested.
[9] abbreviates: 100 PPM in diet, average of two groups.
Where [10] appears, read: 100 PPM in diet, groups of 10 and 9 birds, listed as 2-(2-amino-5-thiadiazolyl)-1-(2-hydroxyethyl)5-nitroimidazole.

`Cn1c([N+](=O)[O-])cnc1-c1nnc(NC2CCCCC2)s1` [2-(2-Cyclohexylamino-5-thiadiazolyl)-1-5-nitroimidazole]: in the assay on Salmonella gallinarum (0.1% in feed, 10 chicks tested), the Survivors came out at 8.

Consider `Cn1c([N+](=O)[O-])cnc1-c1nnc(N2CCN(c3nccs3)CC2)s1` [2-{2-[4-(2-Thiazolyl)-1-piperazinyl]-5-thiadiazolyl]-1-methyl-5-nitroimidazole], for which the responders at 2 mg in the assay with Pasteurella multocida [1] was 20%. Moreover, in assay [2] (setting [4]), the “% Increase Over Controls, F/G” value is 4.1% and 2.0%; the “% Increase Over Controls, Gain” value is 5.0% and 9.0%; the lb.feed/lb. gain is 1.47 lb.feed/lb. gain and 1.50 lb.feed/lb. gain. In assay [2] (setting [5]), the “Gain 19 Days” value is 315.5 Grams and 303.2 Grams; the “Weight at 19 days” value was 337.8 Grams and 346.9 Grams.

As for `CCNc1nnc(-c2ncc([N+](=O)[O-])n2C)s1` [2-(2-Ethylamino-5-thiadiazolyl)-1-methyl-5-nitroimidazole], the Survivors came out at 3 in the assay with Salmonella gallinarum (0.006% in feed, 5 chicks tested); 3 in the assay on Salmonella gallinarum (setting [6]); 10 with Salmonella gallinarum (0.1% in feed, 10 chicks tested). For the same compound, the responders at 2 mg in the assay on Pasteurella multocida [1] is 100%.

In turn, `CNc1nnc(-c2ncc([N+](=O)[O-])n2CCO)o1` [2-(2-methylamino-5-oxadiazolyl)-1-(2-hydroxyethyl)-5-nitroimidazole] displayed a Survivors in the assay with Salmonella gallinarum (0.1% in feed, 10 chicks tested) of 6.

As for `CC(=O)Nc1nnc(-c2ncc([N+](=O)[O-])n2CCO)s1` [N-{5-[1-(2-Hydroxyethyl)-5-nitro-2-imidazolyl]-1,3,4-thiadiazol-2-yl-acetamide], in assay [2] (10 ppm in diet, 10 birds), the “Gain 19 Days” value is given as 305.5 Grams and the “Weight at 19 days” value worked out at 345.9 Grams. Further, in assay [2] (setting [7]), the “% Increase Over Controls, F/G” value is 0.6%; the “% Increase Over Controls, Gain” value is given as 0.7%; the lb.feed/lb. gain turned out to be 1.57 lb.feed/lb. gain.

`Cn1c([N+](=O)[O-])cnc1-c1nnc(NC(C)(C)C)s1` [2-(2-t-Butylamino-5-thiadiazolyl)-1-methyl-5-nitroimidazole] gave a Survivors with Salmonella gallinarum (0.1% in feed, 10 chicks tested) of 6.

Take `CN(C)CCCC1CCN(c2nnc(-c3ncc([N+](=O)[O-])n3C)s2)CC1` [2-{2-[4-(3-Dimethylaminopropyl)-1-piperidino]-5-thiadiazolyl}-1-methyl-5-nitroimidazole]: the responders at 2 mg in the assay on Pasteurella multocida [1] was 100%. Besides, in the assay on Pasteurella multocida [3], the responders at 0.5 mg was 90%.

Consider `Cn1c([N+](=O)[O-])cnc1-c1nnc(NC(=O)C(Cl)Cl)s1` [2-(2-Dichloroacetamido-5-thiadiazolyl)-1-methyl-5-nitroimidazole], for which the Survivors was 3 in the assay on Salmonella gallinarum (0.025% in feed, 15 chicks tested) and 7 in the assay with Salmonella gallinarum (0.1% in feed, 10 chicks tested).

With `Cn1c([N+](=O)[O-])cnc1-c1nnc(NCO)s1` [2-(2-Hydroxymethylamino-5-thiadiazolyl)-1-methyl-5-nitroimidazole], the Survivors came out at 2 in the assay with Salmonella gallinarum (setting [8]); 2 with Salmonella gallinarum (setting [6]); 10 in the assay on Salmonella gallinarum (0.1% in feed, 10 chicks tested). Also, the responders at 2 mg in the assay on Pasteurella multocida [1] is 100%.

In the case of `CN(C)c1nnc(-c2ncc([N+](=O)[O-])n2CCO)o1` [2-(2-dimethylamino-5-oxadiazolyl)-1-(2-hydroxyethyl)-5-nitroimidazole], the Survivors is reported as 2 with Salmonella gallinarum (setting [6]) and 5 in the assay with Salmonella gallinarum (0.1% in feed, 10 chicks tested).

`CN1CCN(c2nnc(-c3ncc([N+](=O)[O-])n3C)s2)CC1` [2-[2-(4-Methyl-1-piperazinyl)-5-thiadiazolyl)-1-methyl-5-nitroimidazole] had a Survivors in the assay with Salmonella gallinarum (0.1% in feed, 10 chicks tested) of 4.

For the compound `Cn1c([N+](=O)[O-])cnc1-c1nnc(N2CCCCC2)s1` [2-(2-Piperidino-5-thiadiazolyl)-1-methyl-5-nitroimidazole], in the assay with Salmonella gallinarum (0.1% in feed, 10 chicks tested), the Survivors stood at 4. In assay [2] (10 ppm in diet, 10 birds), the “Gain 19 Days” value came to 292.7 Grams and the “Weight at 19 days” value is 334.7 Grams. In assay [2] (setting [7]), the “% Increase Over Controls, F/G” value turned out to be 2.7%; the “% Increase Over Controls, Gain” value was 1.0%; the lb.feed/lb. gain is on record as 1.48 lb.feed/lb. gain. Further, in the assay with Pasteurella multocida [3], the responders at 0.25 mg is 50%, the responders at 0.5 mg is 40% and the responders at 1 mg is 90%.

In the case of `Cn1c([N+](=O)[O-])cnc1-c1nnc(NC(=O)CN2CCOCC2)s1` [2-(2-Morpholinoacetamido-5-thiadiazolyl)-1-methyl-5-nitroimidazole], the Survivors was 1 with Salmonella gallinarum (0.025% in feed, 5 chicks tested) and 10 in the assay on Salmonella gallinarum (0.1% in feed, 10 chicks tested). In addition, the responders at 2 mg in the assay with Pasteurella multocida [1] was 20%.

As to `Nc1nnc(-c2ncc([N+](=O)[O-])n2Cc2ccccc2)o1` [2-(2-Amino-5-oxadiazolyl)-1-benzyl-5-nitroimidazole], the Survivors in the assay on Salmonella gallinarum (setting [8]) turned out to be 1; with Salmonella gallinarum (setting [6]), 1; in the assay with Salmonella gallinarum (0.1% in feed, 10 chicks tested), 9.

Regarding `Nc1nnc(-c2ncc([N+](=O)[O-])n2Cc2ccccc2)s1` [2-(2-Amino-5-thiadiazolyl)-1-benzyl-5-nitroimidazole], the Survivors amounted to 4 in the assay on Salmonella gallinarum (setting [6]) and 10 in the assay with Salmonella gallinarum (0.1% in feed, 10 chicks tested). Also, the responders at 2 mg in the assay with Pasteurella multocida [1] is 0%.

For the compound `CNc1nnc(-c2ncc([N+](=O)[O-])n2C)o1` [2-(2-Methylamino-5-oxadiazolyl)-1-methyl-5-nitroimidazole], the Survivors with Salmonella gallinarum (setting [8]) was found to be 8; in the assay on Salmonella gallinarum (setting [6]), 10; in the assay on Salmonella gallinarum (0.1% in feed, 5 chicks tested) it was 5.

On to `Cn1c([N+](=O)[O-])cnc1-c1nnc(N2CCN(CCO)CC2)s1` [2-[4-(2-Hydroxyethyl)-1-piperazinyl-5-thiadiazolyl]-1-methyl-5-nitroimidazole], for which the Survivors was determined as 3 in the assay with Salmonella gallinarum (setting [6]) and 7 in the assay on Salmonella gallinarum (0.1% in feed, 10 chicks tested). In the assay on Pasteurella multocida [1], the responders at 2 mg is 100%.

Consider `Nc1nnc(-c2ncc([N+](=O)[O-])n2CCO)o1` [2-(2-Amino-5-oxadiazolyl)-1-(2-hydroxyethyl)-5-nitroimidazole], for which the responders at 2 mg in the assay with Pasteurella multocida [1] is 100%. The responders at 0.5 mg with Pasteurella multocida [3] is 90%.

`CC(=O)Nc1nnc(-c2ncc([N+](=O)[O-])n2C)o1` [2-(2-Acetamido-5-oxadiazolyl)-1-methyl-5-nitroimidazole]: the Survivors in the assay on Salmonella gallinarum (setting [6]) is 8; in the assay on Salmonella gallinarum (0.1% in feed, 10 chicks tested), 10.

For `CN(CCO)c1nnc(-c2ncc([N+](=O)[O-])n2C)s1` [2-{2-N-(2-Hydroxyethyl)methylamino]-5-thiadiazolyl}-1-methyl-5-nitroimidazolo], the Survivors with Salmonella gallinarum (0.1% in feed, 10 chicks tested) is 8. Moreover, the responders at 2 mg in the assay on Pasteurella multocida [1] was 100%. Further, in the assay on Pasteurella multocida [3], the responders at 0.5 mg was 10% and the responders at 1 mg was 30%.

`CCCCCCNc1nnc(-c2ncc([N+](=O)[O-])n2C)s1` [2-(2-n-Hexylamino-5-thiadiazolyl)-1-methyl-5-nitroimidazole] yielded a Survivors in the assay with Salmonella gallinarum (0.1% in feed, 10 chicks tested) of 6. In the assay on Pasteurella multocida [3], the responders at 0.25 mg is 20%, the responders at 0.5 mg is 80% and the responders at 1 mg is 90%.

In the case of `CCCn1c([N+](=O)[O-])cnc1-c1nnc(N)s1` [2-(2-amino-5-thiadiazolyl)-1-propyl-5-nitroimidazolo], the Survivors in the assay on Salmonella gallinarum (0.1% in feed, 10 chicks tested) was determined as 6.

In turn, `Nc1nnc(-c2ncc([N+](=O)[O-])n2CCO)s1` [2-(2-Amino-5-thiodiazolyl)-1-(2-hydroxyethyl)-5-nitroimidazole] had a Survivors in the assay on Salmonella gallinarum (setting [6]) of 8. In the assay on Salmonella gallinarum (0.1% in feed, 10 chicks tested), this compound came in with a Survivors of 10. In addition, in assay [2] (100 PPM in diet, 19 days), the “% inc. over Controls, F/G” value is on record as 6.5% and the “% inc. over Controls, Gain” value is listed as 7.6%. In assay [2] (setting [9]), the “Average Gain 19 Days” value was determined as 297 Grams and the “Average Wt. at 19 days” value was found to be 340 Grams. Further, the “Average lb. feed/lb. gain” value in assay [2] (100 PPM in diet, average of two groups, 19 days) stood at 1.525 lb. feed/lb. gain. Further, the lb.feed/lb. gain in assay [2] (100 PPM in diet, groups of 10 and 9 birds, 19 days, listed as 2-(2-amino-5-thiadiazolyl)-1-(2-hydroxyethyl)5-nitroimidazole) is 1.53 lb. feed/lb. gain and 1.52 lb. feed/lb. gain. Also, in assay [2] (setting [10]), the “Gain 19 Days” value is 309 Grams and 285 Grams; the “Wt. at 19 days” value is 352.2 Grams and 327.8 Grams. In the assay with Pasteurella multocida [3], the responders at 0.25 mg is 76.7%, the responders at 0.5 mg was 90% and the responders at 1 mg is 100%.
